In ChEMBL document CHEMBL3817779, “Identification of novel 2-aminothiazole conjugated nitrofuran as antitubercular and antibacterial agents” (Bioorg Med Chem Lett, 2016):
≈ marks a conversion by molar mass, not a printed value.

What was measured:
Vero = assay: Cytotoxicity against African green monkey Vero cells assessed as reduction in cell viability after 72 hrs by MTT assay; type: cell-based; details: Chlorocebus sabaeus
[1] = system: Mycobacterium tuberculosis; type: functional; details: H37Ra ATCC 25177
[2] = system: Mycobacterium tuberculosis; type: functional; details: H37Ra ATCC 25177; remark: listed apart in the source
[3] = system: Mycobacterium tuberculosis; assay: Antitubercular activity against Mycobacterium tuberculosis H37Rv assessed as inhibition of visible growth after 7 days by microbroth dilution method; type: functional; details: 168 h
[4] = system: Mycobacterium tuberculosis; assay: microbe, parasite or virus in culture; details: H37Ra ATCC 25177
Description: Antitubercular activity against Mycobacterium tuberculosis H37Ra ATCC 25177

[5] = Aqueous solubility in water at room temperature sonicated for 30 mins followed by overnight incubation by HPLC analysis; type: physicochemical
Staphylococcus aureus [6] = assay: Antibacterial activity against Staphylococcus aureus ATCC 6538; type: functional
Staphylococcus aureus [7] = assay: Antibacterial activity against Staphylococcus aureus ATCC 6538 at 20 uM relative to control; type: functional
[8] = system: Mycobacterium tuberculosis; type: functional; details: H37Ra ATCC 25177; remark: listed apart in the source

SMILES | IC50 (Vero) | inhibition at 1 µM [1] | inhibition at 10 µM [2] | MIC [3] | MIC90 [4] | solubility at 0.5 h [5] | MIC (Staphylococcus aureus [6]) | inhibition at 20 µM (Staphylococcus aureus [7]) | inhibition at 20 µM [8]
O=C(Nc1nc(-c2c(F)cc(F)cc2F)cs1)c1ccc([N+](=O)[O-])o1 | 19.9 µM | -4.1% | -10.1% |  |  |  |  |  | 
COc1ccc(-c2csc(NC(=O)c3ccc([N+](=O)[O-])o3)n2)cc1 | 63 µM | -8.3% | 99.3% |  |  |  |  |  | 
O=[N+]([O-])c1ccc(C2=NOC(c3ccc(N4CCC(Oc5ccc(OC(F)(F)F)cc5)CC4)cc3)C2)o1 (stereo unspecified) |  |  |  | 0.024 µg/mL (≈ 0.0464 µM) |  |  |  |  | 
O=C(Nc1nc(-c2cccc(NS(=O)(=O)Cc3ccccc3)c2)cs1)c1ccc([N+](=O)[O-])o1 | 59.3 µM | 93.9% |  |  | 0.61 µg/mL (≈ 1.26 µM) | 0.48 µg/mL (≈ 0.991 µM) | 1.52 µg/mL (≈ 3.14 µM) |  | 
COc1ccc(C(=O)Nc2cccc(-c3csc(NC(=O)c4ccc([N+](=O)[O-])o4)n3)c2)cc1 |  | -2.7% |  |  |  |  |  |  | 
O=C(Nc1nc(-c2cccc(Cl)c2)cs1)c1ccc([N+](=O)[O-])o1 | 43.7 µM | 40.5% | 99.2% |  |  |  |  |  | 
O=C(Nc1nc(-c2cccc(NC(=O)C3CCCC3)c2)cs1)c1ccc([N+](=O)[O-])o1 |  | 0.2% |  |  |  |  |  |  | 
Cc1cc(C)c(-c2csc(NC(=O)c3ccc([N+](=O)[O-])o3)n2)c(C)c1 | 30.4 µM | 0.9% | -4.3% |  |  |  |  |  | 
CS(=O)(=O)Nc1cccc(-c2csc(NC(=O)c3ccc([N+](=O)[O-])o3)n2)c1 | < 2.81 µM | -4.1% | 82.1% |  |  |  |  |  | 
O=C(Nc1nc(-c2cccc(NC(=O)C3CC3)c2)cs1)c1ccc([N+](=O)[O-])o1 | 35.7 µM | 99.3% | 99.6% |  | 0.5 µg/mL (≈ 1.26 µM) | 0.47 µg/mL (≈ 1.18 µM) | 2.49 µg/mL (≈ 6.25 µM) |  | 
CC(C)(C)OC(=O)Nc1cccc(-c2csc(NC(=O)c3ccc([N+](=O)[O-])o3)n2)c1 |  | 40% |  |  |  |  |  |  | 
O=C(Nc1cccc(-c2csc(NC(=O)c3ccc([N+](=O)[O-])o3)n2)c1)c1ccccc1 | 50.2 µM | 98.9% | 99.5% |  | 0.27 µg/mL (≈ 0.621 µM) | 1.27 µg/mL (≈ 2.92 µM) | 1.36 µg/mL (≈ 3.13 µM) |  | 
COc1cccc(-c2csc(NC(=O)c3ccc([N+](=O)[O-])o3)n2)c1 | 58.7 µM | 68.8% | 100% |  |  |  |  | 99.5% | 99.5%
CCOc1cccc(-c2csc(NC(=O)c3ccc([N+](=O)[O-])o3)n2)c1 | > 90 µM | 95.7% | 99.4% |  | 0.9 µg/mL (≈ 2.5 µM) | 0.34 µg/mL (≈ 0.946 µM) | 4.49 µg/mL (≈ 12.5 µM) |  | 
COc1cccc(-c2csc(NC(=O)c3ccc(N)o3)n2)c1 |  | 5.2% |  |  |  |  |  |  | 
Nc1cccc(-c2csc(NC(=O)c3ccc([N+](=O)[O-])o3)n2)c1 |  | -1.1% |  |  |  |  |  |  | 

SMILES | IC50 (Vero) | inhibition at 1 µM [1] | inhibition at 10 µM [2] | MIC [3] | MIC90 [4] | solubility at 0.5 h [5] | MIC (Staphylococcus aureus [6]) | inhibition at 20 µM (Staphylococcus aureus [7]) | inhibition at 20 µM [8]
COc1ccccc1-c1csc(NC(=O)c2ccc([N+](=O)[O-])o2)n1 | 42 µM | -3% | 99.5% |  |  |  |  |  | 
O=C(Nc1nc(-c2cccc(Br)c2)cs1)c1ccc([N+](=O)[O-])o1 | 71 µM | 70.4% | 98.9% |  |  |  |  |  | 
COc1cccc(-c2csc(NC(=O)c3ccc([N+](=O)[O-])cc3)n2)c1 | > 90 µM | -0.4% | -1.5% |  |  |  |  |  | 
CC(C)Oc1cccc(-c2csc(NC(=O)c3ccc([N+](=O)[O-])o3)n2)c1 | 69.5 µM | 97.8% | 99.2% |  | 0.47 µg/mL (≈ 1.26 µM) | 0.27 µg/mL (≈ 0.723 µM) | 4.67 µg/mL (≈ 12.5 µM) |  | 
O=C(Nc1nc(-c2cccc(NC(=O)C3CCC3)c2)cs1)c1ccc([N+](=O)[O-])o1 |  | 1.9% |  |  |  |  |  |  | 
O=C(Nc1nc(-c2ccccc2)cs1)c1ccc([N+](=O)[O-])o1 | 41.7 µM | 37.2% | 99.5% |  |  |  |  |  | 
CC(=O)Nc1cccc(-c2csc(NC(=O)c3ccc([N+](=O)[O-])o3)n2)c1 | 57.6 µM | 40.6% | 99.4% |  |  |  |  |  | 
O=C(Nc1nc(-c2cccc(NC(=O)C3CCCCC3)c2)cs1)c1ccc([N+](=O)[O-])o1 | 21.9 µM | 98.9% | 99.1% |  | 0.28 µg/mL (≈ 0.636 µM) | 3.46 µg/mL (≈ 7.86 µM) | 2.75 µg/mL (≈ 6.24 µM) |  | 
O=C(Nc1cccc(-c2csc(NC(=O)c3ccc([N+](=O)[O-])o3)n2)c1)c1cccc(C(F)(F)F)c1 |  | 13.7% |  |  |  |  |  |  | 
O=C(Nc1nc(-c2cccc(C(F)(F)F)c2)cs1)c1ccc([N+](=O)[O-])o1 | 23.9 µM | 67% | 98.6% |  |  |  |  |  | 
O=C(Nc1cccc(-c2csc(NC(=O)c3ccc([N+](=O)[O-])o3)n2)c1)c1ccc(F)cc1 |  | 39.8% |  |  |  |  |  |  | 
O=C(Nc1nc(-c2cccc(OC3CCCC3)c2)cs1)c1ccc([N+](=O)[O-])o1 | 81.1 µM | 97.9% | 99.3% |  | 1 µg/mL (≈ 2.5 µM) | 0.027 µg/mL (≈ 0.0676 µM) | 4.99 µg/mL (≈ 12.5 µM) |  | 
O=C(Nc1nc(-c2cccc(F)c2)cs1)c1ccc([N+](=O)[O-])o1 | 51.6 µM | 95.7% | 99.6% |  | 0.83 µg/mL (≈ 2.49 µM) | 14.8 µg/mL (≈ 44.5 µM) | 4.17 µg/mL (≈ 12.5 µM) |  | 
COc1cccc(-c2csc(NC(=O)c3ccco3)n2)c1 | > 90 µM | 1.9% | -0.9% |  |  |  |  |  | 
O=C(O)c1cn(C2CC2)c2cc(N3CCNCC3)c(F)cc2c1=O [CIPROFLOXACIN] |  | 99.6% | 99.7% |  | 1.04 µg/mL (≈ 3.14 µM) |  | 0.26 µg/mL (≈ 0.785 µM) |  | 
